Measured values reported in paper PMC9253268 (Frontiers in Immunology, 2022).

Experiments:
AIA-M rat model = assay: Histology of knee joints of AIA-M rats (H&E, safranin O fast green, Masson trichrome); assay type: in vivo; settings: all p < 0.05
Method: The viscera indexes were calculated by the weight of the thymus, spleen, liver, and kidney relative to total […]. Histological changes were examined using hematoxylin and eosin (H&E), safranin O-fast green (Solarbio, Beijing, China), and Masson trichrome staining (Baso, Wuhan, China) according to routine protocols. Please see detailed information on the protocol in Supplementary Materials Section 5 . […]
after BHGZD administration (5), respectively.
The rats were acclimatized to an apparatus consisting of individual perspex boxes. With the aid of syringe (1mL), 500μL acetone was sprayed gently from a short distance to the middle of the plantar surface of hind paw. […] The amount of time that rats were licking and/or shaking the hind paw was recorded during 5min after acetone application and was used as an index of nocifensive response for cold hypersensitivity (6). The licking and/or shaking time was measured at 0, 5, 10, 15, 25th day after BHGZD administration, […]
For thermal-induced hyperalgesia, the rats were placed for 30minin an apparatus consisting of individual perspex boxes with Hargreaves radiant heat apparatus (Ugo Basile Srl, Comerio VA, Italy) and an infrared radiant heat (40W) source was directed to middle part of the plantar surface of the hind paw. […] The paw withdrawal latency was measured at 0, 5, 10, 15, 25th day after BHGZD administration, respectively. […]

[1] = tested on: NLRP3 inflammasome-induced pyroptosis; assay: NLRP3 inflammasome-induced pyroptosis markers in AIA-M rats (TUNEL, IHC, Western blotting, ELISA); assay type: in vivo, rat; settings: all p < 0.05
Method: The occurrence of pyroptosis in both MH7A cells and synovium tissues in AIA-M rats was determined by in situ TUNEL staining (TUNEL Andy Fluor™ 594 Apoptosis Detection Kit, ABP Biosciences, Wuhan, China) in accordance with the manufacturer’s protocol. Fluorescence images were visualized and photographed with inverted fluorescence microscopes (MF53, MSHOT, Guangzhou, China; Olympus, BX51, Tokyo, Japan). Detailed information on TUNEL assay is provided in Supplementary Materials Section 18 .
To detect the expression levels of NLPR3/ASC of the knee joints in AIA-M rats and corresponding treatment groups, immunohistochemical staining was carried out using a DAB kit (Cat No. AR1027, Boster Biological Technology Co., Ltd., Wuhan, China) and a rabbit/mouse two-step detection kit (Cat No. SV0002/SV0001, Boster Biological Technology Co., Ltd., Wuhan, China) according to the routine protocols. Immunohistochemistry quantification was performed using ImageJ (Image Progressing and Analysis in Java, version 1.42q, https://imagej.nih.gov/ij/), following the ImageJ User Guide. […]
Cell apoptosis was determined by in situ terminal deoxynucleotidyl transferase-mediated dUTP-biotin nick end-labeling reaction (TUNEL) staining (TUNEL Andy Fluor™ 594 Apoptosis Detection Kit, ABP Biosciences, Wuhan, China) in accordance with the […]

CN(Cc1cnc2nc(N)nc(N)c2n1)c1ccc(C(=O)N[C@@H](CCC(=O)O)C(=O)O)cc1 [MTX, methotrexate]
histopathological changes of knee joints (inflammatory cell infiltration, cartilage and bone destruction, synovial hyperplasia) (AIA-M rat model): apparently reversed | activities of GSDMD-NT in sera and its levels in knee joints [1]: reduced | activity of LDH in the sera [1]: significantly decreased
